Several values for one entry are separate records, joined by “and”; a condition that tells them apart may be missing. Equal values may be shown once. Entries after “also recorded” stand apart in the source; their conditions may differ.
How the values were obtained:
Assay type in all cases: in vivo
[1] = tested on: ApoE^−/− mice; assay: Atherosclerotic plaque formation in ApoE−/− mice on atherogenic diet, en face Oil Red O staining of whole aorta (preventive treatment); settings: 100 μg steroid/mouse/day in tap-water, 8 weeks, vs tap water control
Description: (§1) All the animal experiments were approved by the guidelines from Directive 2010/63/EU of the European Parliament on the protection of animals used for scientific purposes. Animal experiments performed in this study were approved by the Scientific and Research Ethics Committee of the Scientific Council of Health of the Hungarian Government under the registration number of DE MÁB/157-5/2010 and are reported in accordance with the ARRIVE guidelines. C57BL/6 ApoE^−/− mice (The Jackson Laboratory; B6.129P2 Apoetm1Unc/J; RRID: IMSR_JAX: 002052) were maintained at the University of Debrecen under specific pathogen-free conditions in accordance with guidelines from Institutional Ethical Committee. To induce atherosclerotic plaque formation, standard chow diet was changed to atherogenic diet (15% fat, 1.25% cholesterol, ssniff Spezialdiäten GmbH, Soest, Germany) at the age of 8 weeks. Mice were randomly divided into two groups and parallelly with the atherogenic diet, mice received tap-water or DHEA-derived steroid (100 μg steroid/mouse/day) in tap-water. The DHEA-derived steroid was replaced every day. Aortas were harvested after 8 weeks of treatment. All mice were euthanized by a predictable and controllable administering of slow-fill compressed CO2 asphyxiation. Atherogenic food composition (high-fat diet): Crude Nutrients (%): Crude Protein 19%; crude fat 15.2%; crude fiber 3.4%; crude ash 6.3%; starch 25.6%; sugar 11.2%; Additives (per kg): vitamin A 15,000 IU; vitamin D3 1,000 IU; vitamin E 110 mg; vitamin K3 5 mg; vitamin C 0 mg; copper 13 mg.
(§2) Aortas were dissected from the aortic arch to the iliac bifurcation. After that, the fatty tissue was carefully removed under a stereomicroscope (M125; Leica Biosystems Nussloch GmbH). […] 0.07 g ORO powder was dissolved in 25 mL methanol and mixed for 10 min on a magnetic stirrer. Finally, 10 mL 1 mol/L NaOH was added to the ORO solution and filtered it. Images were taken with the camera (Nikon D3200; Nikon Corp., Japan) and whole aorta plaque area was analyzed with ImageJ 1.49 software.

[2] = tested on: ApoE^−/− mice; assay: Survival of ApoE−/− mice during treatment; settings: atherogenic diet; for survival / mortality of mice / mouse death before the end of the experiment: 8 weeks treatment
Description: as §1

[3] = tested on: ApoE^−/− mice; assay: Aortic valve calcification in ApoE−/− mice on high-fat diet, von Kossa staining (preventive treatment); settings: 8 weeks; for calcification / mineralization of aortic valve (von Kossa): treatment in drinking water, vs tap water
Description: as §1
(§3) Immunohistochemistry from the aortic root was performed on formalin-fixed, paraffin-embedded tissue sections. 4 μm slides were then deparaffinated using xylol and ethanol. The serial sections were stained with Gill Hematoxylin solution (Merck) followed by eosin counterstaining or with von Kossa. For digital documentation, the stained specimens were scanned with a Mirax Midi scanner (3D Histech, Budapest, Hungary). Macroscopic pictures of the arteries were taken with Nikon D3200 camera (Nikon Corp.; Minato, Tokyo, Japan).

[4] = tested on: ApoE^−/− mice; assay: Reversal of already formed atherosclerotic lesion in ApoE−/− mice, Oil Red O (therapeutic treatment); settings: for already formed atherosclerotic lesion (plaque size, Oil Red O): atherogenic diet 4 or 6 weeks, then chop diet plus S2 in water for 4 or 8 weeks, vs tap water, sodium salt
Description: (§4) In the further part of the present work, it was examined whether the compounds of the invention have positive therapeutic effect, too. In the above-mentioned animal model, the present inventors developed during eight weeks real atherosclerosis, and for an additional eight weeks animals were given S2 compound (100 micrograms per day per animal). Control mice got pure drinking water. At the end of experiment the size and number of sclerotic plaques, the calcification of heart valves and the amount of hydrogen sulfide was measured. […] This means the compounds of the invention have not only preventive, but also therapeutic effect.
as §2
(§5) From a pharmacological point of view to the best of inventors' knowledge, there is no medicine in the market to reverse atherosclerosis and calcification of vessels. Current drugs only slow down the progression of atherosclerosis. Therefore, the present inventors examined the possibility of S2 steroid treatment to reverse the already formed atherosclerotic lesion and calcification. In this experiment the present inventors kept the mice on atherogenic diet for 4 or 6 weeks for development of atherosclerotic lesion and calcification. After that the present inventors changed the atherogenic diet to chop diet and they added S2 steroid to the mice's water for 4 weeks and 8 weeks. Control group got tap water only.

[5] = tested on: ApoE^−/− mice; assay: Reversal of already formed aortic valve calcification in ApoE−/− mice, von Kossa (therapeutic treatment); settings: for already formed aortic valve extracellular matrix mineralization (von Kossa): high-fat diet 6 weeks, then chop diet plus S2 in tap water for 4 weeks, vs tap water, sodium salt
Description: as §4, §3, §5

[6] = tested on: H2S; assay: Sulfide (H2S) level of mice plasma, zinc precipitation assay
Description: as §1
Sulfide levels were measured with zinc precipitation method based upon developed by Gilboa-Garber [Gilboa-Garber N. 1971] and modified by A. D. Ang et al. [Ang A D, et al. 2012]. The human carotid artery was homogenized under liquid nitrogen in 7.4 pH PBS and sonicated it. […] After 10 min the absorbance of the generated methylene blue (MB) was measured with a spectrophotometer at 667 nm. Since during the reaction 1 mol/L MB formed from 1 mol/L sulfide, the concentration was determined by the MB's extinction coefficient (30 200 M 1 cm 1). […]

[7] = listed as DHEA-derived steroid, sodium salt
[8] = listed as DHEA-derived S2 steroid
[9] = atherosclerosis developed during eight weeks, then 100 micrograms per day per animal for additional eight weeks, vs drinking water

Compound | atherosclerotic plaque formation / area of atherosclerotic lesion (Oil Red O, whole aorta) ([1]; sodium salt) | survival / mortality of mice [2] | atherosclerotic plaque formation / area of atherosclerotic lesion (Oil Red O, whole aorta) [1] | day of the treatment regime on which the first treated animal died [2] [days] | mouse death before the end of the experiment [2] | calcification / mineralization of aortic valve (von Kossa) [3] | also measured
CCCCCC(=O)OC1CC[C@H]2[C@@H]3CC=C4CC(OS(=O)(=O)[O-])CC[C@]4(C)[C@H]3CC[C@]12C.[Na+] (some centres unmarked) [C6, 17-hexanoyloxy-5-androstene-3-sulfate sodium salt] | fail to inhibit atherosclerosis; also recorded: not Able to Abrogate Atherosclerotic Plaque Formation | survived |  |  |  |  | 
CCCCCCCCCCCCCCCC(=O)OC1CC[C@H]2[C@@H]3CC=C4CC(OS(=O)(=O)[O-])CC[C@]4(C)[C@H]3CC[C@]12C.[Na+] (some centres unmarked) [C16, 17-palmitoyloxy-5-androstene-3-sulfate sodium salt] | fail to inhibit atherosclerosis; also recorded: not Able to Abrogate Atherosclerotic Plaque Formation | survived |  |  |  |  | 
C[C@]12CC[C@H](O)CC1=CC[C@@H]1[C@@H]2CC[C@]2(C)C(=O)CC[C@@H]12 [DHEA, Dehydroepiandrosterone] |  | elevated mortality rate of the animals | fail to inhibit atherosclerosis; also recorded: did not diminish the development of atherosclerosis; also recorded: not Able to Abrogate Atherosclerotic Plaque Formation | 50 | 45% and 45.5% | cannot decrease the mineralization of extracellular matrix of aortic valve; also recorded: Failed to Prevent Calcification of Aortic Valve | 
CCCCCCCCCCCC(=O)OC1CC[C@H]2[C@@H]3CC=C4CC(OS(=O)(=O)[O-])CC[C@]4(C)[C@H]3CC[C@]12C.[Na+] (some centres unmarked) [S2, 17-lauroyloxy-5-androstene-3-sulphate sodium salt] | highly efficient both in the prevention and reversal of atherosclerosis | survived |  |  |  |  | atherosclerotic plaque formation / area of atherosclerotic lesion (Oil Red O, whole aorta) [1, 7]: inhibits atherosclerosis; also recorded: significantly lesser area of atherosclerotic lesion; lower mineralized area of aortic valves calcification nodules compared to tap-water mice ([3]; steroid in drinking water): 91.2%; calcification / mineralization of aortic valve (von Kossa) [3, 7]: decreases the expansion of the extracellular matrix; also recorded: significantly inhibited the development of calcific nodules in aortic valves; already formed atherosclerotic lesion (plaque size, Oil Red O) [4, 8]: reverses atherosclerosis; already formed atherosclerotic lesion (plaque size, Oil Red O) [4]: significantly lesser atherosclerotic lesion; size and number of sclerotic plaques [4, 9]: significantly less; calcification of heart valves [5, 9]: significantly less; already formed aortic valve extracellular matrix mineralization (von Kossa) [5, 8]: reverses atherosclerosis and aortic valve calcification; already formed aortic valve extracellular matrix mineralization (von Kossa) [5]: significant lesser extracellular matrix mineralization; H2S content of mice plasma ([6]; ApoE−/− mice, steroid treated vs tap-water): elevates H2S content of the mice plasma; plasma H2S concentration compared to control mice plasma ([6]; ApoE−/− mice, steroid treated vs tap-water, normalized to protein content): approximately 2.4 times; concentration of hydrogen sulfide [6, 9]: significantly higher
Dehydroepiandrosterone sulfate [DHEA-S] |  | elevated mortality rate of the animals | fail to inhibit atherosclerosis; also recorded: not Able to Abrogate Atherosclerotic Plaque Formation | 55 | 22% and 28.6% | cannot decrease the mineralization of extracellular matrix of aortic valve; also recorded: Failed to Prevent Calcification of Aortic Valve | atherosclerotic plaque formation / area of atherosclerotic lesion (Oil Red O, whole aorta) ([1]; listed as DHEAS): did not diminish the development of atherosclerosis

From patent US20250171490A1, “DHEA-DERIVED STEROIDS” (DEBRECENI EGYETEM, priority 2022, published 2025)
